Where two headings read alike, the source gives them in different places.
Biological target: T1, Syk (Homo sapiens, UniProt P43405)
T1 construct: purchased Carna Biosciences
Experiment: Syk HTRF assay
Format: biochemical
Method in brief: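 HTRF kinase assay in HEPES pH 7.6 buffer with MgCl2, DTT and Triton X100; start mix of 87.5 μM ATP and 80 nM biotinylated peptide, 1 h at room temperature. EDTA stop, then Eu-anti-phosphotyrosine/streptavidin-DyLight 647 detection, read as 665/615 nm emission ratio.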

[1] = activity levels A-D, read-out: Activity Level (IC50 in the Syk HTRF assay)
[2] = IC50 activity level, read-out: Activity Level
[3] = read-out: Activity Level (Syk HTRF assay IC50)

OCCOc1cc(Nc2nc3cccc(N[C@H]4CC[C@@H](O)CC4)n3n2)ccn1 [Example 277, cis-4-(2-(2-(2-hydroxyethoxy)pyridin-4-ylamino)-[1,2,4]triazolo[1,5-a]pyridin-5-ylamino)cyclohexanol] was tested, and the IC50 [1] was 0.005 to 250 nM.
CNCc1nc2ccc(-c3cccc4nc(Nc5ccc(F)cc5)nn34)cc2[nH]1 [Example 437, N-(4-fluorophenyl)-5-(2-((methylamino)methyl)-1H-benzo[d]imidazol-6-yl)-[1,2,4]triazolo[1,5-a]pyridin-2-amine] was tested, and the IC50 [2] was 0.005 to 250 nM.
Cn1cnc2cc(Nc3nc4cccc(-c5ccccc5)n4n3)ccc21 [compound 55, N-(1-methyl-1H-benzo[d]imidazol-5-yl)-5-phenyl-[1,2,4]triazolo[1,5-a]pyridin-2-amine] gave an IC50 [3] of 250 to 500 nM.
With FC(F)(F)c1ccc(Nc2nc3cccc(N4CCCC4)n3n2)cc1 [Example 307, 5-(pyrrolidin-1-yl)-N-(4-(trifluoromethyl)phenyl)-[1,2,4]triazolo[1,5-a]pyridin-2-amine] the IC50 [1] was 1000 to 10000 nM.
CC(C)(O)c1nc2ccc(-c3cccc4nc(Nc5ccc(C(F)(F)F)cc5)nn34)cc2[nH]1 [Example 379, 2-(6-(2-(4-(trifluoromethyl)phenylamino)-[1,2,4]triazolo[1,5-a]pyridin-5-yl)-1H-benzo[d]imidazol-2-yl)propan-2-ol] gave an IC50 [1] of 250 to 500 nM.
In the case of CN(C)c1cccc2nc(Nc3ccc4c(c3)NC(=O)C4(C)C)nn12 [Example 566, 6-(5-(dimethylamino)-[1,2,4]triazolo[1,5-a]pyridin-2-ylamino)-3,3-dimethylindolin-2-one], the IC50 [2] is reported as 0.005 to 250 nM.
Work on C1=C(c2cccc3nc(Nc4ccccc4)nn23)CCNC1 [Example 513, N-phenyl-5-(1,2,3,6-tetrahydropyridin-4-yl)-[1,2,4]triazolo[1,5-a]pyridin-2-amine] yielded an IC50 [2] of 1000 to 10000 nM.
Work on Cn1c(=O)[nH]c2cc(Nc3nc4cccc(N[C@H]5CC[C@@H](O)CC5)n4n3)ccc21 [Example 570, cis-5-(5-(4-hydroxycyclohexylamino)-[1,2,4]triazolo[1,5-a]pyridin-2-ylamino)-1-methyl-1H-benzo[d]imidazol-2(3H)-one] yielded an IC50 [2] of 0.005 to 250 nM.
Cc1cc(Nc2nc3cccc(CN4CCNC(=O)C4)n3n2)cc2c1C(C)(C)C(=O)N2 [Example 546] showed an IC50 [2] of 0.005 to 250 nM.
NCCCc1cccc2nc(Nc3ccccc3)nn12 [Example 498, 5-(3-aminopropyl)-N-phenyl-[1,2,4]triazolo[1,5-a]pyridin-2-amine] gave an IC50 [2] of 1000 to 10000 nM.
Molecule c1cc(N[C@@H]2CCCNC2)n2nc(Nc3ccc4c(c3)CNC4)nc2c1 [Example 449] has an IC50 [2] of 0.005 to 250 nM.
Work on OC[C@H]1CCN(Cc2cccc3nc(Nc4ccc(C(F)(F)F)cc4)nn23)C1 [Example 324, (S)-(1-((2-(4-(trifluoromethyl)phenylamino)-[1,2,4]triazolo[1,5-a]pyridin-5-yl)methyl)pyrrolidin-3-yl)methanol] yielded an IC50 [1] of 1000 to 10000 nM.
With CNC(=O)c1ccc(Nc2nc3cccc(CC(O)C4CCNCC4)n3n2)cc1 (stereo not shown) [Example 306, 4-(5-(2-hydroxy-2-(piperidin-4-yl)ethyl)-[1,2,4]triazolo[1,5-a]pyridin-2-ylamino)-N-methylbenzamide] the IC50 [1] was 1000 to 10000 nM.
CC1(C)C(=O)Nc2cc(Nc3nc4cccc(N[C@H]5CC[C@](C)(O)CC5)n4n3)ccc21 [Example 162, trans-6-(5-(4-hydroxy-4-methylcyclohexylamino)-[1,2,4]triazolo[1,5-a]pyridin-2-ylamino)-3,3-dimethylindolin-2-one] gave an IC50 [3] of 0.005 to 250 nM.
O=C1CN(Cc2cccc3nc(Nc4ccc(C(F)(F)F)cc4)nn23)CCN1 [Example 388, 4-((2-(4-(trifluoromethyl)phenylamino)-[1,2,4]-triazolo[1,5-a]pyridin-5-yl)methyl)piperazin-2-one] was tested, and the IC50 [1] was 0.005 to 250 nM.
Work on COc1ccc(Nc2nc3cccc(N[C@H]4CC[C@@H](O)CC4)n3n2)cn1 [Example 391, cis-4-(2-(6-methoxypyridin-3-ylamino)-[1,2,4]triazolo[1,5-a]pyridin-5-ylamino)cyclohexanol] yielded an IC50 [1] of 500 to 1000 nM.
Work on Nc1cccc(-c2cccc3nc(Nc4ccccc4)nn23)c1 [Example 87] yielded an IC50 [3] of 0.005 to 250 nM.
Cc1nc2ccc(Nc3nc4cccc(-c5cccc(O)c5)n4n3)cc2[nH]1 [compound 10, 3-(2-(2-methyl-1H-benzo[d]imidazol-6-ylamino)-[1,2,4]triazolo[1,5-a]pyridin-5-yl)phenol] gave an IC50 [3] of 0.005 to 250 nM.
Work on CNC(=O)c1ccc(Nc2nc3cccc(-c4cc(Cl)cc(CCCN)c4)n3n2)cc1 [compound 6, 4-(5-(3-(3-aminopropyl)-5-chlorophenyl)-[1,2,4]triazolo-[1,5-a]pyridin-2-ylamino)-N-methylbenzamide] yielded an IC50 [3] of 0.005 to 250 nM.
Work on OC[C@H]1CC[C@H](Nc2cccc3nc(Nc4ccc(C(F)(F)F)cc4)nn23)CC1 (stereo in doubt) [Example 414, trans-(4-(2-(4-(trifluoromethyl)phenylamino)-[1,2,4]triazolo[1,5-a]pyridin-5-ylamino)cyclohexyl)methanol] yielded an IC50 [2] of 500 to 1000 nM.
N[C@H]1CC[C@@H](Nc2cccc3nc(Nc4ccccc4)nn23)CC1 [Example 508, cis-N^5-(4-aminocyclohexyl)-N^2-phenyl-[1,2,4]triazolo[1,5-a]pyridine-2,5-diamine] showed an IC50 [2] of 250 to 500 nM.
Cc1c2ccc(Nc3nc4cccc(N[C@H]5CC[C@@H](O)CC5)n4n3)cc2nn1C [Example 217, cis-4-(2-(2,3-dimethyl-2H-indazol-6-ylamino)-[1,2,4]triazolo[1,5-a]pyridin-5-ylamino)cyclohexanol] gave an IC50 [1] of 0.005 to 250 nM.
O=C1CCCN1c1ccc(Nc2nc3cccc(-c4ccccc4)n3n2)cc1 [compound 50] was tested, and the IC50 [3] was 0.005 to 250 nM.
Molecule O[C@H]1CC[C@@H](Nc2cccc3nc(Nc4ccccc4)nn23)CC1 [Example 471, cis-4-(2-(phenylamino)-[1,2,4]triazolo[1,5-a]pyridin-5-ylamino)cyclohexanol] has an IC50 [2] of 0.005 to 250 nM.
N#Cc1ccc(-c2cccc3nc(Nc4ccccc4)nn23)cc1 [compound 76, 4-(2-(phenylamino)-[1,2,4]triazolo[1,5-a]pyridin-5-yl)benzonitrile] showed an IC50 [3] of 1000 to 10000 nM.
Cc1cc(Nc2nc3cccc(CC4CCOCC4)n3n2)cc2c1C(C)(C)C(=O)N2 [compound 126] gave an IC50 [3] of 0.005 to 250 nM.
In the case of NC(=O)c1cccc(Cc2cccc3nc(Nc4ccccc4)nn23)c1 [Example 442, 3-((2-(phenylamino)-[1,2,4]triazolo[1,5-a]pyridin-5-yl)methyl)benzamide], the IC50 [2] is reported as 250 to 500 nM.
c1ccc(Nc2nc3cccc(-c4ccnc(N5CCNCC5)c4)n3n2)cc1 [Example 520, N-phenyl-5-(2-(piperazin-1-yl)pyridin-4-yl)-[1,2,4]triazolo[1,5-a]pyridin-2-amine] was tested, and the IC50 [2] was 1000 to 10000 nM.
O=C1CN(Cc2cccc3nc(Nc4ccc5c(C(F)(F)F)n[nH]c5c4)nn23)CCN1 [Example 155, 4-((2-(3-(trifluoromethyl)-1H-indazol-6-ylamino)-[1,2,4]triazolo[1,5-a]pyridin-5-yl)methyl)piperazin-2-one] showed an IC50 [3] of 0.005 to 250 nM.
For CC(=O)N1CCc2cc(Nc3nc4cccc(-c5ccccc5)n4n3)ccc21 [compound 60, 1-(5-(5-phenyl-[1,2,4]triazolo[1,5-a]pyridin-2-ylamino)indolin-1-yl)ethanone], the IC50 [3] was 0.005 to 250 nM.
For O=C1c2ccc(Nc3nc4cccc(N[C@H]5CC[C@@H](O)CC5)n4n3)cc2CN1CCO [Example 198, cis-5-(5-(4-hydroxycyclohexylamino)-[1,2,4]triazolo[1,5-a]pyridin-2-ylamino)-2-(2-hydroxyethyl)isoindolin-1-one], the IC50 [3] was 0.005 to 250 nM.
COCc1nc2ccc(-c3cccc4nc(Nc5ccc(C(F)(F)F)cc5)nn34)cc2[nH]1 [Example 401, 5-(2-(methoxymethyl)-1H-benzo[d]imidazol-6-yl)-N-(4-(trifluoromethyl)phenyl)-[1,2,4]triazolo[1,5-a]pyridin-2-amine] gave an IC50 [2] of 0.005 to 250 nM.
Work on CNC(=O)c1ccc(Nc2nc3cccc(-c4ccc5nc(C)[nH]c5c4)n3n2)cc1 [Example 244, N-methyl-4-(5-(2-methyl-1H-benzo[d]imidazol-6-yl)-[1,2,4]triazolo[1,5-a]pyridin-2-ylamino)benzamide] yielded an IC50 [1] of 0.005 to 250 nM.
For NC(=O)c1cc(Nc2nc3cccc(-c4ccccc4)n3n2)ccn1 [compound 51, 4-(5-phenyl-[1,2,4]triazolo[1,5-a]pyridin-2-ylamino)picolinamide], the IC50 [3] was 1000 to 10000 nM.
O[C@@H]1CCCN(c2cccc3nc(Nc4ccc(C(F)(F)F)cc4)nn23)C1 [Example 309, (R)-1-(2-(4-(trifluoromethyl)phenylamino)-[1,2,4]triazolo[1.5-a]pyridin-5-yl)piperidin-3-ol] showed an IC50 [1] of 500 to 1000 nM.
Oc1cccc(Nc2nc3cccc(N[C@H]4CC[C@@H](O)CC4)n3n2)n1 [Example 305, cis-6-(5-(4-hydroxycyclohexylamino)-[1,2,4]triazolo[1,5-a]pyridin-2-ylamino)pyridin-2-ol] gave an IC50 [1] of 1000 to 10000 nM.
Work on OC[C@H]1CCCN1c1cccc2nc(Nc3ccc(C(F)(F)F)cc3)nn12 [Example 288, (R)-(1-(2-(4-(trifluoromethyl)phenylamino)-[1,2,4]triazolo[1,5-a]pyridin-5-yl)pyrrolidin-2-yl)methanol] yielded an IC50 [1] of 250 to 500 nM.
NCCOc1cc(-c2cccc3nc(Nc4ccccc4)nn23)ccn1 [Example 444, 5-(2-(2-aminoethoxy)pyridin-4-yl)-N-phenyl-[1,2,4]triazolo[1,5-a]pyridin-2-amine] showed an IC50 [2] of 250 to 500 nM.
In the case of Cc1n[nH]c2cc(Nc3nc4cccc(N(C)C5CCOCC5)n4n3)ccc12 [Example 189, N^5-methyl-N^2-(3-methyl-1H-indazol-6-yl)-N^5-(tetrahydro-2H-pyran-4-yl)-[1,2,4]triazolo[1,5-a]pyridin-2,5-diamine], the IC50 [3] is reported as 0.005 to 250 nM.
In the case of O[C@@H]1CCC[C@@H]1Nc1cccc2nc(Nc3ccc(C(F)(F)F)cc3)nn12 [Example 406, (1R,2S)-2-(2-(4-(trifluoromethyl)phenylamino)-[1,2,4]triazolo[1,5-a]pyridin-5-ylamino)cyclopentanol], the IC50 [2] is reported as 500 to 1000 nM.

Source: patent US8299056B2 (Signal Pharmaceuticals, LLC, priority 2008, dated 2012)
